Read-outs that look alike come from different tables or passages of the source.
Legend:
Format in all cases: cell-based
[1] = test system: SMMC-7721 (human hepatoma cells); experiment: MTT inhibition of tumor cell growth, SMMC-7721; conditions: Homo sapiens, SMMC-7721, 48 h
Summary of the method: (§1)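 Compound exposure lasts 48 h at 37° C on cells plated at 5000-10000 per well in serum-containing medium. Viability is read by MTT reduction at 595 nm, and IC50 is computed with the two-point Reed and Muench method.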

[2] = test system: A-549 (Human lung adenocarcinoma cells); experiment: MTT inhibition of tumor cell growth, A-549; conditions: Homo sapiens, A549, 48 h
Summary of the method: as §1

[3] = test system: HL-60 (human promyelocytic leukemia cells); experiment: MTT inhibition of tumor cell growth, HL-60; conditions: Homo sapiens, HL-60, 48 h
Summary of the method: as §1

[4] = test system: Wnt signaling pathway (Top-Flash reporter gene); experiment: Top-Flash Wnt reporter gene assay in HEK293T cells with Wnt3a conditioned medium; conditions: Homo sapiens, HEK-293T, 6 h, HEK293T, Wnt3a conditioned medium, 6 h
Description: HEK293T cells were cultured in DMEM containing 10% fetal bovine serum (Invitrogen) at 37° C., 5% CO2. The cells were passaged every other day. The density was retained at 70˜80% during passage. L cell line (CRL-2647, purchased from the gene bank of ATCC, the US) and the control cell line (CRL-2648, purchased from ATCC, US), which stably secreted mouse Wnt3a protein, were cultured in DMEM containing 50 ug/ml G418 and 10% fetal bovine serum, at 37° C., 5% CO2. When the cells grew to a density of about 70%, the medium was replaced with DMEM containing 10% fetal bovine serum. After continuous culture for 4 days, the culture was collected and centrifuged, and the supernatant was kept so that the Wnt conditioned medium was obtained. After titration assay, the conditioned medium was quick-frozen in liquid nitrogen, and placed at −80° C. for long-term storage, so that the titer was kept unchanged.
The cells were seeded to a 48-well plate at a density of […] cells per well, and transfected 20 h later. The reagents for plasmid transfection were calculated based on the amount in each well of the 48-well plate as following: the total amount of plasmid was 125 ng/well; the plasmid was first added to a serum-free medium (25 μL/well) and mixed well; PLUS reagent (Invitrogen) was then added in an amount of 0.5 μL/well and mixed well, then stood for 15 min; Lipofectamine (Invitrogen) liposome was added in an amount of 0.5 μL/well to serum-free DMEM medium (25 μL/well), and then mixed with the solution containing the plasmid and the PLUS, and stood for 15 min. The cells were cultured in serum-free DMEM medium (100 μL/well), and the final mixture of plasmid, PLUS and Lipofectamine were added to the cells. After incubation for 3 h, the transfection was stopped by the medium containing 10% fetal bovine serum (200 μL/well).
The HEK293T cells used for activity assay of the report gene were transfected by the method as shown in 2). Activity assay of Wnt reporter gene: the amount of plasmid for transfection was 5 ng/well for TOP-flash and 5 ng/well for GFP plasmid as internal standard, with lacZ added to reach a total amount of 125 ng/well. […] After treating for 6 h, Boehringer Mannheim Luci-ferase Assay Kit was used to lyse cells (200 μL/well). 50 μL from each well was pipetted into a 96-well plate. The indensity of GFP protein in the cell lysate was measured by fluorimeter FL600 (BIO-TEK Inc. Winooski, Vt.), and taken as internal standard for cell transfection efficiency. 10 μL substrate of luciferase was then added to each well, and the activity of luciferase was measured by Micro Lumate Plus (Perkin Elmer Inc. Wellesley, Mass.) luminometer. Finally, GFP indensity was used as internal standard to calibrate the activity of luciferase, i.e. the activity of Wnt reporter gene.
Calculation of IC50 (taking the calculation of IC50 of the Wnt signaling pathway for example): background (the activity as measured in the groups treated with a conditioned medium containing DMSO only) was subtracted from the reporter gene activity as measured in the groups treated by Wnt3a conditioned medium with or without the compound to be tested at different concentrations; and the obtained value was defined as the activity of the reporter gene induced by Wnt or the residual activity of the reporter gene after adding the compound to be tested. The residual activity was normalized by the activity induced by Wnt to get the relative residual activity. Then combine with the concentrations of the compound to be tested to plot a linear graph, and a dose-effect curve was fitted based on 4-parameter logistic fit. IC50 of the Wnt signaling pathway is determined as the concentration at which the relative residual activity is 0.5.

[5] = test system: MCF-7 (human breast cancer cells); experiment: MTT inhibition of tumor cell growth, MCF-7; conditions: Homo sapiens, MCF7, 48 h
Summary of the method: as §1

[6] = test system: SW-480 (human colon cancer cells); experiment: MTT inhibition of tumor cell growth, SW-480; conditions: Homo sapiens, SW480, 48 h
Summary of the method: as §1

[7] = Table 5, derivatives having double Michael reaction acceptor
[8] = Table 9, read-out: IC50(μM), inhibitory activity on the Wnt signaling pathway
[9] = Table 5, derivatives having double Michael reaction acceptor, read-out: IC50 SW-480
[10] = Table 6, double Michael reaction acceptor derivatives, read-out: IC50 SW-480, derivatives having double Michael reaction acceptor
[11] = Table 3, single Michael reaction acceptor, modified lactonic ring
[12] = Table 8, read-out: IC50 (μM), inhibitory activity on the Wnt signaling pathway
[13] = Table 3, single Michael reaction acceptor, modified lactonic ring, read-out: IC50 SW-480
[14] = Table 6, 7-hydroxyl derivatives and controls, read-out: IC50 SW-480, 7-hydroxyl derivatives
[15] = Table 2, derivatives having potential Michael reaction acceptor
[16] = Table 2, derivatives having potential Michael reaction acceptor, read-out: IC50 SW-480
[17] = Table 6, 7-carbonyl derivatives, read-out: IC50 SW-480, 7-carbonyl derivatives
[18] = Table 10, read-out: IC50 (μM), inhibitory activity on the Wnt signaling pathway
[19] = Table 4, derivatives obtained by reduction of the lactonic ring
[20] = Table 4, derivatives obtained by reduction of the lactonic ring, read-out: IC50 SW-480

Row | IC50 [4, 8] | IC50 [1, 11] | IC50 [2, 11] | IC50 [3, 11] | IC50 [4, 12] | IC50 [5, 11] | IC50 [6, 13] | IC50 [1, 15] | IC50 [2, 15] | IC50 [3, 15] | IC50 [5, 15] | IC50 [6, 16] | SMILES | further results
1 | 6.72 ± 1.11 µM | – | – | – | – | – | – | – | – | – | – | – | C=C1C(=O)[C@@]23CC[C@@H](CC2[C@@]24CCC[C@@](C)(CO[C@H]2OC)C14)C(=C)C3=O (some centres unmarked) [Compound 23] | IC50 [1, 7]: 0.15 µM; IC50 [2, 7]: 0.2 µM; IC50 [3, 7]: 0.51 µM; IC50 [5, 7]: 0.24 µM; IC50 [6, 9]: 0.39 µM; IC50 [6, 10]: 0.79 µM
2 | – | 4.92 µM | 3.25 µM | 4.87 µM | 21.7 ± 0.63 µM | 4 µM | 6.33 µM | – | – | – | – | – | C=C1C(=O)[C@]23CC[C@H]1CC2[C@@]12CCC[C@@](C)(COC1)C2C[C@H]3O (some centres unmarked) [Compound 25] | IC50 [6, 14]: 4.12 µM
3 | – | 4.62 µM | 2.97 µM | 4.9 µM | 9.12 ± 0.21 µM | 2.85 µM | 2.37 µM | 4.62 µM | 2.97 µM | 4.9 µM | 2.85 µM | 2.37 µM | C=C1C(=O)[C@]23CC[C@H]1CC2[C@@]12CCC[C@@](C)(COC1)C2CC3=O (some centres unmarked) [Compound 28] | IC50 [6, 17]: 2.06 µM
4 | – | – | – | – | – | – | – | 1.9 µM | 0.77 µM | 1.94 µM | 1.44 µM | 1.53 µM | C=C1C(=O)[C@]23CC[C@H]1CC2[C@@]12CCC[C@@](C)(COC1)C2[C@H](CO)C3=O (some centres unmarked) [Compound 30] | IC50 [4, 18]: 15.4 ± 1.5 µM
5 | 7.1 ± 0.7 µM | – | – | – | – | – | – | 4.44 µM | 6.11 µM | 3.6 µM | 8.86 µM | 5.43 µM | C=C1C(=O)[C@@]23CC[C@@H](CC2[C@@]24CCC[C@@](C)(COC2)C14)C(=C)C3=O (some centres unmarked) [Compound 31] | IC50 [1, 7]: 1.79 µM; IC50 [2, 7]: 0.76 µM; IC50 [3, 7]: 1.31 µM; IC50 [5, 7]: 1.71 µM; IC50 [6, 9]: 0.62 µM; IC50 [6, 10]: 0.45 µM
6 | – | – | – | – | – | – | – | 3.12 µM | 2.22 µM | 3.45 µM | 2.02 µM | 1.58 µM | C=C1C(=O)[C@]23CC[C@H]1CC2[C@@]12CCC[C@@](C)(COC1)C2[C@H](COS(C)(=O)=O)C3=O (some centres unmarked) [Compound 32] | IC50 [4, 18]: 19.8 ± 1.04 µM
7 | – | 10.9 µM | 13.7 µM | 17 µM | 18.1 ± 2.67 µM | 18.5 µM | 24.6 µM | – | – | – | – | – | C=C1C(=O)C23CC[C@H]1CC2[C@@]12CCC[C@@]4(C)CO[C@@H]1O[C@@H]3CC42 (some centres unmarked) [Compound 36] | –
8 | – | > 40 µM | > 40 µM | > 40 µM | > 60 µM | > 40 µM | > 40 µM | – | – | – | – | – | C=C1C(=O)C23CC[C@H]1CC2[C@]1(C(=O)O)CCC[C@@](C)(CO)C1C[C@H]3O (some centres unmarked) [Compound 38] | –
9 | – | 34.8 µM | 17.5 µM | 28.8 µM | > 60 µM | 21.5 µM | 20.7 µM | – | – | – | – | – | C=C1C(=O)C23CC[C@H]1CC2[C@@]12CCC[C@@](C)(C(=O)OC1=O)C2CC3=O (some centres unmarked) [Compound 39] | –
10 | – | 0.9 µM | 2.18 µM | 1.58 µM | > 60 µM | 2.24 µM | 2.09 µM | – | – | – | – | – | C=C1C(=O)C23CC[C@H]1CC2[C@@]12CCC[C@@](C)(COS(=O)OC1)C2C[C@H]3O (some centres unmarked) [Compound 41] | IC50 [6, 14]: 2.09 µM
11 | 12.8 ± 0.13 µM | – | – | – | – | – | – | – | – | – | – | – | C=C1C(=O)C23CC[C@@H](CC2[C@@]24CCC[C@@](C)(COS(=O)OC2)C14)C(=C)C3=O (some centres unmarked) [Compound 43] | IC50 [1, 7]: 0.16 µM; IC50 [2, 7]: 0.58 µM; IC50 [3, 7]: 0.68 µM; IC50 [5, 7]: 0.78 µM; IC50 [6, 9]: 0.59 µM; IC50 [6, 10]: 0.34 µM
12 | – | – | – | – | 9.98 ± 1 µM | – | – | – | – | – | – | – | C=C1C(=O)C23CC[C@H]1CC2[C@]1(COC(C)=O)CCC[C@@](C)(COC(C)=O)C1C[C@H]3O (some centres unmarked) [Compound 45] | IC50 [1, 19]: 7.83 µM; IC50 [2, 19]: 3.49 µM; IC50 [3, 19]: 4.74 µM; IC50 [5, 19]: 4.82 µM; IC50 [6, 20]: 9.89 µM; IC50 [6, 14]: 2.81 µM
13 | – | – | – | – | – | – | – | – | – | – | – | – | C=C1C(=O)C23CC[C@H]1CC2[C@]1(CO)CCC[C@@](C)(CO)C1C[C@H]3O (some centres unmarked) [Compound 46] | IC50 [1, 19]: 4.48 µM; IC50 [2, 19]: 4.28 µM; IC50 [3, 19]: 4.28 µM; IC50 [4, 18]: 27.7 ± 2.8 µM; IC50 [5, 19]: 8.07 µM; IC50 [6, 20]: 4.42 µM
14 | – | – | – | – | 16.9 ± 1.89 µM | – | – | 3.91 µM | 2.95 µM | 3.38 µM | 3.38 µM | 3.74 µM | C=C1C(=O)C23CC[C@H]1CC2[C@]1(COC(C)=O)CCC[C@@](C)(COC(C)=O)C1CC3=O (some centres unmarked) [Compound 47] | IC50 [1, 19]: 3.91 µM; IC50 [2, 19]: 2.95 µM; IC50 [3, 19]: 3.38 µM; IC50 [5, 19]: 3.38 µM; IC50 [6, 20]: 3.74 µM; IC50 [6, 17]: 3.67 µM
15 | 46.9 ± 1.26 µM | – | – | – | – | – | – | 6.13 µM | 3.04 µM | 5.03 µM | 2.93 µM | 3.94 µM | C=C1C(=O)C23CC[C@H]1CC2[C@]1(COC(C)=O)CCC[C@@](C)(COC(C)=O)C1[C@H](CO)C3=O (some centres unmarked) [Compound 48] | –
16 | 58.2 ± 1.18 µM | – | – | – | – | – | – | 14 µM | 11 µM | 6.5 µM | 12.8 µM | 15.5 µM | C=C1C(=O)C23CC[C@H]1CC2[C@]1(COC(C)=O)CCC[C@@](C)(COC(C)=O)C1[C@H](COS(C)(=O)=O)C3=O (some centres unmarked) [Compound 49] | –
17 | 56 ± 0.92 µM | – | – | – | – | – | – | 10.8 µM | 4.69 µM | 6.3 µM | 4.23 µM | 6.57 µM | C=C1C(=O)C23CC[C@H]1CC2[C@]1(COC(C)=O)CCC[C@@](C)(COC(C)=O)C1[C@H](CN1CCOCC1)C3=O (some centres unmarked) [Compound 50] | –

— patent publication US10112918B2, “15-oxospiramilactone derivatives, preparation method and uses thereof” (Kunming Institute of Botany, The Chinese Academy of Sciences, priority 2013, dated 2018)
